Where a name gives a salt, the structure may show the parent alone.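 48-hour exposure; five concentrations; linearly interpolated endpoints. The concentration for 50% growth inhibition is given as GI50.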 Calls of active or inactive are those of the source. No stated cut-off is given here; in the data, active = GI50 up to about 1.1 µM and inactive = higher.
Legend:
Test in all cases: NCI tumour cell line growth inhibition, 48 h
DMS-114 = test system: DMS-114
HCT-116 = test system: HCT-116
M14 = test system: M14
ACHN = test system: ACHN
DLD-1 = test system: DLD-1
SNB-19 = test system: SNB-19
COLO 205 = test system: COLO 205
HCC 2998 = test system: HCC 2998
HOP-92 = test system: HOP-92
RXF 393 = test system: RXF 393
DMS-273 = test system: DMS-273
HL-60 = test system: HL-60
XF498 = test system: XF498
TK-10 = test system: TK-10
OVCAR-5 = test system: OVCAR-5
HOP-18 = test system: HOP-18
SF-295 = test system: SF-295
786-0 = test system: 786-0
HOP-62 = test system: HOP-62
Malme-3M = test system: Malme-3M
SNB-75 = test system: SNB-75
SNB-78 = test system: SNB-78
OVCAR-3 = test system: OVCAR-3
A549 = test system: A549
KM12 = test system: KM12
SK-MEL-28 = test system: SK-MEL-28
OVCAR-4 = test system: OVCAR-4
K562 = test system: K562
SK-MEL-5 = test system: SK-MEL-5
SW-620 = test system: SW-620
OVCAR-8 = test system: OVCAR-8
KM-20L2 = test system: KM-20L2
NCI-H522 = test system: NCI-H522
MOLT-4 = test system: MOLT-4
LXFL 529 = test system: LXFL 529
EKVX = test system: EKVX
CCRF-CEM = test system: CCRF-CEM
NCI-H460 = test system: NCI-H460
SF-539 = test system: SF-539
UACC-62 = test system: UACC-62
SK-OV-3 = test system: SK-OV-3
HCT-15 = test system: HCT-15
CAKI-1 = test system: CAKI-1
HT-29 = test system: HT-29
SF-268 = test system: SF-268
IGROV-1 = test system: IGROV-1
U-251 = test system: U-251
SR = test system: SR
NCI-H23 = test system: NCI-H23
A498 = test system: A498
NCI-H226 = test system: NCI-H226
UO-31 = test system: UO-31
RPMI-8226 = test system: RPMI-8226
UACC-257 = test system: UACC-257
SK-MEL-2 = test system: SK-MEL-2
M19-MEL = test system: M19-MEL
SN12C = test system: SN12C
LOX IMVI = test system: LOX IMVI
MCF7 = test system: MCF7
Hs-578T = test system: Hs-578T
T47D = test system: T47D
NCI/ADR-RES = test system: NCI/ADR-RES
MDA-MB-231 = test system: MDA-MB-231
PC-3 = test system: PC-3
BT-549 = test system: BT-549

Measured: GI50

Cc1cccc(C)c1NC(=O)C(=O)C(C#N)c1ccccc1Cl (stereo not given)
inactive: DMS-114 > 100 µM | HCT-116 > 100 µM | M14 > 100 µM | ACHN > 100 µM | DLD-1 > 100 µM | SNB-19 > 100 µM | COLO 205 > 100 µM | HCC 2998 > 100 µM | HOP-92 > 100 µM | RXF 393 > 100 µM | DMS-273 > 100 µM | HL-60 80.2 µM | XF498 > 100 µM | TK-10 > 100 µM | OVCAR-5 > 100 µM | HOP-18 91.4 µM | SF-295 > 100 µM | 786-0 > 100 µM | HOP-62 > 100 µM | Malme-3M > 100 µM | SNB-75 > 100 µM | SNB-78 > 100 µM | OVCAR-3 > 100 µM | A549 > 100 µM | KM12 > 100 µM | SK-MEL-28 > 100 µM | OVCAR-4 > 100 µM | K562 > 100 µM | SK-MEL-5 > 100 µM | SW-620 > 100 µM | OVCAR-8 > 100 µM | KM-20L2 > 100 µM | NCI-H522 > 100 µM | MOLT-4 > 100 µM | LXFL 529 > 100 µM | EKVX > 100 µM | CCRF-CEM > 100 µM | NCI-H460 > 100 µM | SF-539 > 100 µM | UACC-62 > 100 µM | SK-OV-3 > 100 µM | CAKI-1 > 100 µM | HT-29 > 100 µM | SF-268 > 100 µM | IGROV-1 > 100 µM | U-251 > 100 µM | SR > 100 µM | NCI-H23 > 100 µM | A498 > 100 µM | NCI-H226 > 100 µM | UO-31 > 100 µM | RPMI-8226 > 100 µM | UACC-257 > 100 µM | SK-MEL-2 > 100 µM | M19-MEL > 100 µM | SN12C > 100 µM
> 100 µM: HCT-15

COc1ccc(/C=C/c2onc3c(=O)n(C)nc(-c4ccccc4)c23)cc1
inactive: DMS-114 > 100 µM | HCT-116 > 100 µM | M14 > 100 µM | ACHN > 100 µM | DLD-1 > 100 µM | SNB-19 > 100 µM | COLO 205 > 100 µM | HOP-92 7.26 µM | RXF 393 > 100 µM | DMS-273 > 100 µM | HL-60 > 100 µM | XF498 37 µM | TK-10 > 100 µM | HOP-18 > 100 µM | 786-0 > 100 µM | HOP-62 89.3 µM | A549 > 100 µM | SK-MEL-28 > 100 µM | K562 > 100 µM | SK-MEL-5 > 100 µM | SW-620 > 100 µM | LOX IMVI > 100 µM | OVCAR-8 > 100 µM | KM-20L2 > 100 µM | NCI-H522 77.6 µM | MOLT-4 > 100 µM | LXFL 529 > 100 µM | EKVX > 100 µM | CCRF-CEM > 100 µM | NCI-H460 > 100 µM | SF-539 48.9 µM | UACC-62 > 100 µM | SK-OV-3 > 100 µM | CAKI-1 35.9 µM | HT-29 45 µM | SF-268 > 100 µM | IGROV-1 > 100 µM | U-251 > 100 µM | NCI-H23 > 100 µM | UO-31 > 100 µM | RPMI-8226 > 100 µM | M19-MEL > 100 µM | SN12C > 100 µM
> 100 µM: HCT-15

N=c1ccn2c(n1)O[C@H]1[C@H](O)[C@@H](CO)O[C@H]12 [ANCITABINE HYDROCHLORIDE]
active: DMS-114 0.406 µM | HCT-116 0.282 µM | M14 0.253 µM | ACHN 0.291 µM | HL-60 0.346 µM | MCF7 0.522 µM | 786-0 0.57 µM | HOP-62 0.292 µM | A549 0.198 µM | LOX IMVI 0.347 µM | OVCAR-8 0.658 µM | MOLT-4 0.207 µM | NCI-H460 0.154 µM | SR 0.183 µM | NCI-H23 0.406 µM
inactive: DLD-1 652 µM | COLO 205 154 µM | HCC 2998 33.7 µM | RXF 393 79.8 µM | DMS-273 2.34 µM | XF498 > 647 µM | TK-10 > 1000 µM | OVCAR-5 24.7 µM | HOP-18 11.2 µM | Hs-578T > 1000 µM | SF-295 25.2 µM | Malme-3M 3.03 µM | SNB-75 532 µM | T47D 213 µM | SNB-78 242 µM | NCI/ADR-RES 2.35 µM | OVCAR-4 > 1000 µM | K562 8.85 µM | SK-MEL-5 9.23 µM | KM-20L2 > 562 µM | NCI-H522 47.4 µM | EKVX 62.1 µM | SF-539 44.1 µM | MDA-MB-231 31.7 µM | UACC-62 2.24 µM | SK-OV-3 66.1 µM | CAKI-1 1.66 µM | HT-29 135 µM | SF-268 7.05 µM | IGROV-1 151 µM | U-251 15.1 µM | PC-3 2.79 µM | BT-549 > 1000 µM | A498 13.6 µM | RPMI-8226 141 µM | UACC-257 78.7 µM | SK-MEL-2 411 µM | M19-MEL 7.21 µM | SN12C 1.91 µM
